According to US7387796B2, “Stable compositions of S-adenosyl-l-methionine with dextran” (priority 2002, dated 2008):

Assays:
[1] = 10 ng/ml injected; sample left at room temperature in the light for 12 months, no special protection
[2] = oral, alcoholic liver cirrhosis, compared with placebo treated group; cited from earlier work
[3] = patients with Alzheimer's disease, preliminary study; cited from earlier work
[4] = oral administration, patients with and without liver disease; cited from earlier work
[5] = oral administration, intrahepatic cholestasis; cited from earlier work
[6] = oral administration, short term trial; cited from earlier work
[7] = in vivo; cited from earlier work

C[S+](CC[C@H](N)C(=O)[O-])C[C@H]1O[C@@H](n2cnc3c(N)ncnc32)[C@H](O)[C@@H]1O (some centres unmarked) [SAM-e, S-adenosyl-1-methionine]
Area of HPLC peak [1]: 189251 | conc. [1]: 10 ng/mL | overall mortality and/or progression to liver transplant [2]: 12% | cognitive effect [3]: cognitive improvement | liver glutathione levels [4]: increases in liver glutathione levels | pruritus and biochemical markers of cholestasis [5]: improvements in both the pruritus as well as the biochemical markers of cholestasis | clinical effect in primary fibromyalgia [6]: significant improvement | toxicity in clinical use [7]: absence of toxicity
